According to patent US20220098203A1 (priority 2018, published 2022):
Read-outs that look alike come from different tables or passages of the source.

Experiments:
[1] = system: SAM in HCT116 MTAP-deleted cells; test: Cellular assay of target engagement (SAM), LC-MS/MS; assay type: cell-based, human; details: Homo sapiens, HCT-116, Table 5a, 72 h, read-out: Cell 72 h SAM Inhibition (MTAP −/−)
Description: Measurement of MAT2A activity in cells was made by direct quantitation of the abundance of the product of its enzymatic activity, SAM. Cancer cells were treated with candidate MAT2A inhibitors for a suitable incubation period, and the cells were then lysed using a reagent which quenched any further enzyme activity. Soluble metabolites including SAM were collected and SAM itself was directly measured from the lysate using quantitative LC-MS/MS.
A typical assay was performed using an HCT116 human colon carcinoma cell line which was genetically engineered to delete the MTAP gene (commercially available from Horizon Discovery). […] Cells were plated in 96-well dishes at appropriate cell density. Following 24 hours, cells were then treated with the candidate MAT2A inhibitor. […] Compound was then transferred to a working stock plate in cell culture media by adding 5 μL of compound in DMSO to 495 μL of cell culture media. This working stock was then added to cells via a further 5-fold dilution, by adding 25 μL of working stock to 100 μL of cells in culture media. Following compound addition, cells were incubated at 37° C./5% CO2 for 72 hrs.
To quantitate SAM levels following compound treatment, cells were gently washed once in ammonium carbonate buffer (75 mM at pH 7.4), placed on dry ice, and lysed with metabolite extraction buffer (80% cold methanol and 20% water (v/v) with acetic acid at 1M final concentration with 200 ng/mL deuterated d3-SAM as internal control). Following centrifugation at 4° C. at 3,200 rpm for 30 minutes, the supernatant was collected and stored at −80° C. until analysis by Liquid Chromatography with tandem Mass Spectrometry (LC-MS/MS). LC-MS/MS analysis was performed using an API6500 Mass Spectrometer (Sciex, Framingham, Mass., USA) operating in positive ion spray mode and equipped with a Waters UPLC Acquity (Waters, Milford, Mass., USA) BEH Amide column.

[2] = system: HCT116 MTAP-/-; test: Inhibition of cellular proliferation (Cell Titer Glo), HCT116 MTAP-/-; assay type: cell-based, human; details: Homo sapiens, HCT-116, 96 h, Table 5a, 4 days, read-out: 4 Day Relative Growth Inhibition (MTAP −/−)
Description: (§1) Test compound impact on cancer cell growth was assessed by treating cancer cells with compound for 4 days and then measuring proliferation using an ATP-based cell proliferation readout (Cell Titer Glo, Promega Corporation).
(§2) In a typical assay an isogenic pair of HCT116 human colon carcinoma cell lines which vary only in MTAP deletion status (HCT116 MTAP+/+ and HCT116 MTAP−/−) were plated in 96-well dishes at appropriate cell density. Following 24 hours, cells were then treated with the candidate MAT2A inhibitor. […] Compound was then transferred to a working stock plate in cell culture media by adding 5 μL of compound in DMSO to 495 μL of cell culture media. This working stock was then added to cells via a further 5-fold dilution, by adding 25 μL of working stock to 100 μL of cells in culture media. Following compound addition, cells were incubated at 37° C./5% CO2 for 4 days.
(§3) The plate was then covered with aluminum foil and shaken for 15 minutes to ensure complete mixing and full cell lysis. […] This luminescence measure was converted to a proliferation index by subtracting from each data point the ATP luminescence signal measured from a bank (no cells) well and dividing by the ATP luminescence signal measured in 0.2% DMSO control well adjusted for signal in blank well.

[3] = system: HCT116 MTAP+/+; test: Inhibition of cellular proliferation (Cell Titer Glo), HCT116 MTAP+/+; assay type: cell-based; details: Homo sapiens, HCT-116, 96 h, Table 5a, 4 days, read-out: 4 Day Relative Growth Inhibition (MTAP +/+)
Description: as §1, §2, §3

[4] = biological target: T1, MAT2A homodimer (Homo sapiens, UniProt P31153); test: MAT2A biochemical assay (liberated phosphate, PiColorLock Gold); details: read-out: Enzyme Inhibition
T1 construct: inferred from the Ni sepharose purification and imidazole elution; made in house; host or cells: SF9 insect cells, recombinant baculovirus (Bac to Bac, pFASTBAC1)
Procedure, shortened: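 Readout is liberated phosphate (PiColorLock Gold), stoichiometric with SAM production, quantified against a potassium phosphate standard curve. Enzyme: recombinant MAT2A homodimer from Sf9, equilibrated 60 min at 25 °C with compound before 60 min reaction with substrate mix containing 500 μM ATP and 400 μM L-methionine.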

[5] = Table 5a, MAT2A biochemical assay

T1 sequence (P31153 whole entry): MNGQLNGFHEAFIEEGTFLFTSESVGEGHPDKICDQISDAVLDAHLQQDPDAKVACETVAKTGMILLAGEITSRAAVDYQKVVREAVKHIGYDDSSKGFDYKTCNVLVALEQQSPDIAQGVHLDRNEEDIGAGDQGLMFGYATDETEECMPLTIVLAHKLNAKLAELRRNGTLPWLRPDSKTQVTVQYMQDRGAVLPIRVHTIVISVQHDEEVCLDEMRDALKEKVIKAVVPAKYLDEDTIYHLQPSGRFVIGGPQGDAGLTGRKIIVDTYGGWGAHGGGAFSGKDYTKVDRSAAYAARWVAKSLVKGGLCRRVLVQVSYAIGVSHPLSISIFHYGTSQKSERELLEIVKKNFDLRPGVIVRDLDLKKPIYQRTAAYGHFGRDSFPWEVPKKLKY

Row | IC50 [1] [µM] | IC50 [2] [µM] | IC50 [3] [µM] | IC50 [4, 5] [µM] | IC50 ([4]; Table 5b, Additional Examples) [µM] | IC50 ([4]; Table 5a, given as a bound, not a class symbol) [µM] | Compound
1 | 0.1 to 1 | 0.1 to 1 | > 1 | < 0.1 |  |  | Cn1cc2cc(N3Cc4ccc(OCC(F)F)nc4N(c4ccc5[nH]cnc5c4)C3=O)ccc2n1 [Example 404, 1-(1H-benzo[d]imidazol-5-yl)-7-(2,2-difluoroethoxy)-3-(2-methyl-2H-indazol-5-yl)-3,4-dihydropyrido[2,3-d]pyrimidin-2(1H)-one]
2 | < 0.1 | 0.1 to 1 | > 1 | < 0.1 |  |  | Cn1cc2cc(N3Cc4ccc(OCC(F)F)nc4N(c4ccc5[nH]cc(C#N)c5c4)C3=O)ccc2n1 [Example 410, 5-(7-(2,2-difluoroethoxy)-3-(2-methyl-2H-indazol-5-yl)-2-oxo-3,4-dihydropyrido[2,3-d]pyrimidin-1(2H)-yl)-1H-indole-3-carbonitrile]
3 | 0.1 to 1 | 0.1 to 1 | > 1 | < 0.1 |  |  | CO[C@H]1CC[C@H](N2C(=O)N(c3ccc4nn(C)cc4c3)Cc3ccc(OCC(F)F)nc32)CC1 [Example 429, 7-(2,2-difluoroethoxy)-1-(trans-4-methoxycyclohexyl)-3-(2-methyl-2H-indazol-5-yl)-3,4-dihydropyrido[2,3-d]pyrimidin-2(1H)-one]
4 | 0.1 to 1 | 0.1 to 1 |  | < 0.1 |  |  | COc1ccc(N2C(=O)N(c3ccc4nccnc4c3)Cc3cnc(NCC(F)(F)F)nc32)cc1 [Example 233, 1-(4-methoxyphenyl)-3-(quinoxalin-6-yl)-7-((2,2,2-trifluoroethyl)amino)-3,4-dihydropyrimido[4,5-d]pyrimidin-2(1H)-one]
5 |  |  |  | 0.1 to 1 |  |  | COc1ccc(N2C(=O)N(c3ccc(OC)nc3)Cc3cnc(NCC(F)(F)F)nc32)cc1 [Example 239, 1-(4-methoxyphenyl)-3-(6-methoxypyridin-3-yl)-7-((2,2,2-trifluoroethyl)amino)-3,4-dihydropyrimido[4,5-d]pyrimidin-2(1H)-one]
6 |  |  |  | 1 to 10 |  |  | COc1ccc(N2C(=O)N(c3ccc4nn(C)cc4c3)Cc3cnc(NC4CCCCC4)nc32)cc1 [Example 248, 7-(cyclohexylamino)-1-(4-methoxyphenyl)-3-(2-methyl-2H-indazol-5-yl)-3,4-dihydropyrimido[4,5-d]pyrimidin-2(1H)-one]
7 |  |  |  | < 0.1 |  |  | [2H]C([2H])([2H])Oc1ccc(N2C(=O)N(c3ccc4nc(C)n(C)c4c3)Cc3c(C)nc(NCC(F)(F)F)nc32)cc1 [Example 435, 3-(1,2-dimethyl-1H-benzo[d]imidazol-6-yl)-1-(4-(methoxy-d3)phenyl)-5-methyl-7-((2,2,2-trifluoroethyl)amino)-3,4-dihydropyrimido[4,5-d]pyrimidin-2(1H)-one]
8 |  |  |  |  |  | > 10 | CCOc1ccc(N2C(=O)N(c3ccc4nn(C)cc4c3)Cc3nnc(OCC)cc32)cc1 [Example 438]
9 |  |  |  | 0.1 to 1 |  |  | COc1ccc(N2Cc3cnc(NCC(F)(F)F)nc3N([C@H]3CC[C@H](OC)CC3)C2=O)cc1 [Example 258]
10 |  |  |  | 0.1 to 1 |  |  | COc1ccc(N2Cc3cnc(NCC(F)(F)F)nc3N(c3ccc(OC(F)(F)F)cc3)C2=O)cc1 [Example 256, 3-(4-methoxyphenyl)-7-((2,2,2-trifluoroethyl)amino)-1-(4-(trifluoromethoxy)phenyl)-3,4-dihydropyrimido[4,5-d]pyrimidin-2(1H)-one]
11 |  |  |  | 0.1 to 1 |  |  | COc1ccc(N2Cc3cnc(NCC(F)(F)F)nc3N(c3ccc4sccc4c3)C2=O)cc1 [Example 254, 1-(benzo[b]thiophen-5-yl)-3-(4-methoxyphenyl)-7-((2,2,2-trifluoroethyl)amino)-3,4-dihydropyrimido[4,5-d]pyrimidin2(1H)-one]

Further lines, the molecule ahead of its results:

Row | Compound | IC50 [1] [µM] | IC50 [2] [µM] | IC50 [3] [µM] | IC50 [4, 5] [µM] | IC50 ([4]; Table 5b, Additional Examples) [µM] | IC50 ([4]; Table 5a, given as a bound, not a class symbol) [µM]
12 | O=C1N(c2ccc3ncsc3c2)Cc2cnc(NCC(F)(F)F)nc2N1c1ccc(-c2nc[nH]n2)cc1 [Example 219, 1-(4-(1H-1,2,4-triazol-3-yl)phenyl)-3-(benzo[d]thiazol-6-yl)-7-((2,2,2-trifluoroethyl)amino)-3,4-dihydropyrimido[4,5-d]pyrimidin-2(1H)-one] | < 0.1 | 0.1 to 1 | > 1 | < 0.1 |  | 
13 | [2H]C([2H])([2H])Oc1ccc(N2C(=O)N(c3ccc4nn(C)cc4c3)Cc3c(C)cc(OCC(F)F)nc32)cc1 [Example 185, 7-(2,2-difluoroethoxy)-1-(4-methoxy-d3-phenyl)-5-methyl-3-(2-methyl-2H-indazol-5-yl)-3,4-dihydropyrido[2,3-d]pyrimidin-2(1H)-one] | < 0.1 | < 0.1 | 0.1 to 1 | < 0.1 |  | 
14 | COc1ccc(N2C(=O)N(c3ccc4nn(C)cc4c3)Cc3ncc(OCC(F)F)nc32)cc1 [Example 180, 7-(2,2-difluoroethoxy)-1-(4-methoxyphenyl)-3-(2-methyl-2H-indazol-5-yl)-3,4-dihydropteridin-2(1H)-one] | < 0.1 | < 0.1 | 0.1 to 1 | < 0.1 |  | 
15 | [2H]C([2H])([2H])Oc1ccc(N2C(=O)N(c3ccc4ncn(C)c4c3)Cc3ccc(OCC(F)F)nc32)cc1 [Example 135, 7-(2,2-difluoroethoxy)-1-(4-(methoxy-d3)phenyl)-3-(1-methyl-1H-benzo[d]imidazol-6-yl)-3,4-dihydropyrido[2,3-d]pyrimidin-2(1H)-one] | < 0.1 | < 0.1 | > 1 | < 0.1 |  | 
16 | CCOc1ccc2c(n1)N(c1ccc(OC(F)(F)F)nc1)C(=O)N(c1ccc3nn(C)cc3c1)C2 [Example 147, 7-ethoxy-3-(2-methyl-2H-indazol-5-yl)-1-(6-(trifluoromethoxy)pyridin-3-yl)-3,4-dihydropyrido[2,3-d]pyrimidin-2(1H)-one] | 0.1 to 1 | 0.1 to 1 | > 1 | < 0.1 |  | 
17 | COc1ccc(N2Cc3cnc(NCC(F)(F)F)nc3N(c3ccc(N)cc3)C2=O)cc1 [Example 204, 1-(4-aminophenyl)-3-(4-methoxyphenyl)-7-((2,2,2-trifluoroethyl)amino)-3,4-dihydropyrimido[4,5-d]pyrimidin-2(1H)-one] |  |  |  | 0.1 to 1 |  | 
18 | COc1ccc(N2C(=O)N(c3ccc4nn(C)cc4c3)Cc3ccc(N4CCC4)nc32)cc1 |  |  |  |  | > 10 | 
19 | COC(=O)c1ccc(N2C(=O)N(c3ccc(OC)cc3)Cc3cnc(NCC(F)(F)F)nc32)cc1 [Example 203, methyl 4-(3-(4-methoxyphenyl)-2-oxo-7-((2,2,2-trifluoroethyl)amino)-3,4-dihydropyrimido[4,5-d]pyrimidin-1(2H)-yl)benzoate] |  |  |  | 0.1 to 1 |  | 
20 | O=C1N(c2ccc3nccn3c2)Cc2cnc(NCC(F)(F)F)nc2N1c1ccc(OC(F)F)cc1 [Example 225, 1-(4-(difluoromethoxy)phenyl)-3-(imidazo[1,2-a]pyridin-6-yl)-7-((2,2,2-trifluoroethyl)amino)-3,4-dihydropyrimido[4,5-d]pyrimidin-2(1H)-one] |  |  |  | < 0.1 |  | 
21 | COCc1ccc(N2C(=O)N(c3ccc(OC)cc3)Cc3cnc(NCC(F)(F)F)nc32)cc1 [Example 209, 1-(4-(methoxymethyl)phenyl)-3-(4-methoxyphenyl)-7-((2,2,2-trifluoroethyl)amino)-3,4-dihydropyrimido[4,5-d]pyrimidin-2(1H)-one] |  |  |  | 0.1 to 1 |  | 
22 | CCOc1ccc2c(n1)N(c1ccc(OC)cc1)C(=O)N(c1cncs1)C2 [Example 127, ethoxy-1-(4-methoxyphenyl)-3-(thiazol-5-yl)-3,4-dihydropyrido[2,3-d]pyrimidin-2(1H)-one] |  |  |  | 0.1 to 1 |  | 
